Assay results taken from patent publication US9255128B2, “Nucleic acid for determining actin structures in living cells” (Max-Planck-Gesellschaft zur Forderung der Wissenschaften …, priority 2007, dated 2016).
One block for each compound: values may come before it.

How the values were obtained:
F-actin in MDCK cells = assay: Double staining of PFA fixed MDCK cells with Cy3-conjugated phalloidin; assay type: cell-based, canine; settings: TIRF microscopy
Source text: (§1) TIRE images were captured on an iMic-stand from Till photonics with an 1.45 NA 100× objective from Olympus. A 300 mW Argon laser and a 20 mW DPSS 561 nm laser were selected through an AOTF. A 2-axis scan head (Yanus II) was used to digitally adjust the TIRE angle. Images were collected with a cooled Imago QE CCD camera. Acquisition was controlled by the TILLvisION software package. Confocal images were collected on a standard Leica SP2 setup. Epifluorescence images were collected on a Zeiss axiovert 200M stand equipped with a climate control chamber from EMBL.

non-muscle actin = assay: F-actin co-sedimentation assay, non-muscle actin; assay type: binding
Protocol: Muscle actin, non-muscle actin, α-actinin and pyrene actin were purchased from Cytoskeleton, Inc. Actin was diluted to working concentrations in G buffer (2 mM Tris HCl, pH 8.0, 0.2 mM ATP, 0.1 mM CaCl2, 0.5 mM DTT).
Polymerization of actin was induced by addition of 0.1 volume 10×KMEI buffer (50 mM KCl, 1 mM MgCl2, 1 mM EGTA, 10 mM imidazole HCl, pH 7.0) and incubation for >1 h at room temperature (RT). […] The supernatant was removed and the pellet resuspended in 100 μl of 1×KMEI buffer. The amount of peptide was measured in a Cary Eclipse Fluorescence Spectrophotometer with excitation/emission set for FITC at 495 nm/520 nm. The bound/total ratio was calculated as the signal from the pellet divided by the total signal. The Kd was obtained by fitting to a hyperbolic curve.

[1] = Solubility of peptide in PBS; assay type: physicochemical
[2] = tested on: MDCK and mouse embryonic fibroblasts; assay: Cytotoxicity, morphology and growth of transfected cells; assay type: cell-based; settings: transiently and stably transfected cells
Protocol: (§2) Mouse primary dendritic cells were generated from flushed bone marrow suspension as described previously^30. At day 8-10 cells were nucleofected using the primary mouse T cell kit and the Amaxa nucleoporator according to the manufacturers recommendations and immediately after transfection 200 ng/ml LPS were added over night and cells were subsequently sorted into GFP positive and negative fractions by using fluorescent activated cell sorting. MDCK cells and mouse embryonic Fibroblasts were grown according to standard procedures and transfected using lipofectamine.

[3] = tested on: primary rat hippocampal neurons; assay: Neuronal polarization of transfected hippocampal neurons; assay type: cell-based; settings: mock transfected cells 69±9%
Protocol: Primary hippocampal neurons were isolated from rat embryos as previously described. Briefly, hippocampi derived from E18 rats were dissected, trypsinized, and dissociated. Directly after dissociation, 5×10^5 hippocampal neurons were transfected by the Amaxa nucleofector system using 3 μg of highly purified plasmid DNA of pEGFP-Lifeact, pEGFP-actin or pEGFP-N2. The neurons were then immediately plated onto poly-L-lysine-coated glass coverslips in 6 cm petri dishes containing minimal essential medium (MEM) and 10% heat-inactivated horse serum. The cells were kept in 5% CO2 at 36.5° C. 6-12 hrs after plating the glass coverslips were then transferred into 6 cm petri dishes containing astrocytes in MEM and N2 supplements and kept in culture for 2DIV.
Neurons were categorized into three stages: neurons with a single axon, multiple axons or no axon. A neurite length >35 μm was used as threshold to define the axon. Developmental stages were observed by live cell microscopy as described.

[4] = tested on: mouse embryonic fibroblasts; assay: Lamellipodial retrograde actin flow in fibroblasts; assay type: cell-based; settings: transfected fibroblasts; indistinguishable from untransfected cells
Source text: as §1
All image processing steps were performed in Metamorph (Molecular Devices). For visualization purposes sequences were routinely processed by sequential application of a local background subtraction filter and a 3×3 gauss low pass filter. Color overlays and kymographs were created with the respective functions in Metamorph.
as §2, with “MDCK cells and mouse embryonic Fibroblasts were grown according to standard procedures and transfected using lipofectamine.” left out

mouse dendritic cells = assay: Chemotactic dendritic cell migration in 3-dimensional collagen matrix; assay type: cell-based; settings: CCL19 gradient
Protocol: as §2
PureCol™ gels containing mature dendritic cells were cast as described previously. Gels were overlayed with 50 μl of 0.6 μg/ml CCL19 (R&D Systems) in RPMI, 10% FCS and imaged on an inverted Axiovert 40 (Zeiss) microscopes, equipped with custom built climate chambers (5% CO2, 37° C., humidified). Under agarose dendritic cell migration was performed as described^31. Briefly, dendritic cells were added into wells punched into an agarose layer. Recombinant CCL19 was added into the adjacent well and, following the chemokine gradient, the cells entered the space between agarose and coverslip. Chemotaxing cells were subsequently imaged with TIRF microscopy.

Kd (non-muscle actin): 5.4 ± 2.6 µM
Compound: CC[C@H](C)[C@H](NC(=O)[C@H](CC(C)C)NC(=O)[C@H](CC(=O)O)NC(=O)[C@H](C)NC(=O)[C@@H](NC(=O)CNC(=O)[C@H](CCSC)NC(=S)Nc1ccc2c(c1)C(=O)OC21c2ccc(O)cc2Oc2cc(O)ccc21)C(C)C)C(=O)N[C@@H](CCCCN)C(=O)N[C@@H](CCCCN)C(=O)N[C@@H](Cc1ccccc1)C(=O)N[C@@H](CCC(=O)O)C(=O)N[C@@H](CO)C(=O)N[C@H](C(=O)N[C@@H](CO)C(=O)N[C@@H](CCCCN)C(=O)N[C@@H](CCC(=O)O)C(=O)N[C@@H](CCC(=O)O)C(=O)O)[C@@H](C)CC [F-Lifeact]
overlap with phalloidin staining (F-actin in MDCK cells): nearly complete overlap

solubility in PBS [1]: not soluble in PBS
Compound: CC[C@H](C)[C@H](NC(=O)[C@H](CC(C)C)NC(=O)[C@H](CC(=O)O)NC(=O)[C@H](C)NC(=O)[C@@H](NC(=O)CNC(=O)[C@@H](N)CCSC)C(C)C)C(=O)N[C@@H](CCCCN)C(=O)N[C@@H](CCCCN)C(=O)N[C@@H](Cc1ccccc1)C(=O)N[C@@H](CCC(=O)O)C(=O)N[C@@H](CO)C(=O)N[C@H](C(=O)N[C@@H](CO)C(=O)N[C@@H](CCCCN)C(=O)N[C@@H](CCC(=O)O)C(=O)N[C@@H](CCC(=O)O)C(=O)O)[C@@H](C)CC [Lifeact]

Compound: Lifeact-G: Lifeact-GFP fusion expressed from pEGFP-N1 backbone under the CMV promoter
signs of cytotoxicity [2]: no signs of cytotoxicity
cells formed one axon [3]: 60.1±0.2%
speed of retrograde flow in lamellipodia [4]: 4 μm/min
effect on speed of chemotactic dendritic cell migration (mouse dendritic cells): no effect
